According to ChEMBL document CHEMBL5096193, “Potential pharmacological strategies targeting the Niemann-Pick C1 receptor and Ebola virus glycoprotein interaction” (Eur J Med Chem, 2021):

Key:
[1] = system: Ebolavirus; assay: Antiviral activity against Ebola virus infected in African green monkey Vero E6 cells assessed as reduction in viral titer infected for 1 hr followed by compound addition and measured after 5 days by immunofocus assay; assay type: functional, organism-based; details: Orthoebolavirus, Vero C1008
[2] = system: Ebolavirus; assay: Antiviral activity against HIV based pseudotyped virus expressing Ebola-GP infected in human HeLa cells assessed as reduction in viral infection preincubated for 1 hrs followed by viral infection and measured after 48hrs by Steady-Glo luciferase assay; assay type: functional, organism-based; details: Orthoebolavirus
[3] = system: Zaire ebolavirus; assay: Antiviral activity against Zaire ebolavirus infected in african green monkey assessed as reduction in viral infection preincubated for 1 hr followed by viral infection 1 hr and measured after 8 days by crystal violet staining based plaque assay; assay type: functional, organism-based, Vero E6; details: Vero C1008
[4] = system: Ebolavirus; assay: Antiviral activity against HIV based pseudotyped virus expressing Ebola-GP infected in human A549 cells assessed as inhibition of viral infection preincubated upto 12 hrs followed by viral infection and measured after 48 hrs; assay type: functional; details: Orthoebolavirus, time 60 hrs
[5] = system: Ebolavirus; assay: Antiviral activity against Ebola virus infected in […] cells assessed as reduction in viral infection incubated for 10 days by crystal violet staining based method; assay type: functional, organism-based; details: Orthoebolavirus, 240 h
[6] = system: Ebolavirus; assay: Antiviral activity against VSV based pseudotyped virus expressing Ebola-GP infected in […] cells assessed as reduction in viral infection incubated for 24 hrs by linear regression analysis; assay type: functional, organism-based; details: Orthoebolavirus
[7] = system: Ebolavirus; assay: Antiviral activity against Zaire Ebola virus infected in African green monkey assessed as reduction in viral infection incubated for 48hrs by GFP fluorescence based method; assay type: functional, organism-based, Vero E6; details: Orthoebolavirus, Vero C1008, 48 h
[8] = system: Ebolavirus; assay: Antiviral activity against HIV based pseudotyped virus expressing Ebola-GP infected in human 293T cells assessed as inhibition of viral infection preincubated for 1 hr followed by viral infection 1 hr and measured after 72 hrs; assay type: functional; details: Orthoebolavirus, 293TA; time 74 hrs
[9] = system: Ebolavirus; assay: Antiviral activity against Ebola virus; assay type: functional, organism-based; details: Orthoebolavirus
[10] = system: Ebolavirus; assay: Antiviral activity against Ebola virus makona; assay type: functional, organism-based; details: Orthoebolavirus
[11] = Inhibition of NPC1/VSV pseudotyped Ebola Viral Glycoprotein protein-protein interaction; set-up: species or system Ebolavirus

## NC(=O)c1nc(F)cnc1O [FAVIPIRAVIR]
[1]
  IC50: 67 µM

## CCN(CC)CC(=O)NNc1ccccc1Sc1cc(Cl)ccc1[N+](=O)[O-]
[2]
  IC50: 4.69 µM

## CCOc1ccc(NC(=O)CSc2nnc(COc3cccc(N(C)C)c3)n2-c2ccccc2)cc1
[3]
  IC50: 10 µM
[4]
  IC90: 25.7 µM

## O=C(CN1CCCC1)NNc1ccccc1Sc1cc(Cl)ccc1[N+](=O)[O-]
[2]
  IC50: 2.04 µM

## C[C@]12CC3CC(C(=O)N[C@H]4CC[C@H](N)CC4)(C1)C[C@@](c1ccccc1)(C3)C2
[5]
  EC50: 0.24 µM
[6]
  EC50: 0.24 µM

## FC(C1=Nc2ccccc2N=C(c2ccccc2)C1)C(F)(F)F (configuration not stated)
[7]
  IC50: 10 µM
[8]
  IC90: 12.1 µM

## CN(C)CCOc1ccc(/C(=C(/CCCl)c2ccccc2)c2ccccc2)cc1 [TOREMIFENE]
[9]
  IC50: 0.162 µM

## CCC(CC)COC(=O)[C@H](C)N[P@](=O)(OC[C@H]1O[C@@](C#N)(c2ccc3c(N)ncnn23)[C@H](O)[C@@H]1O)Oc1ccccc1 [REMDESIVIR]
[10]
  IC50: 86 µM

## O=C(CC12CC3CC(CC(C3)C1)C2)NCC(=O)N1CCN(Cc2ccccc2)CC1
[11]
  IC50: 1.6 µM

## COc1ccc(S(=O)(=O)N(CC(=O)Nc2ccccc2-c2ccccc2)c2ccc(C)cc2)cc1
[3]
  IC50: 8.07 µM
[4]
  IC90: 8.6 µM

## O=C(CNCCC1CCN(Cc2ccccc2)CC1)Nn1c2ccccc2c2ccccc21
[2]
  IC50: 0.37 µM

## COC(=O)c1ccc(COc2ccccc2CN2CCN(C(=O)CNC(=O)CC34CC5CC(CC(C5)C3)C4)CC2)cc1
[10]
  EC50: 0.16 µM
[11]
  IC50: 0.13 µM
